Measured values: US10815276B2, “Cell penetrating peptides and methods of making and using thereof” (Entrada Therapeutics, Inc., priority 2014, dated 2020)
Read-outs that look alike come from different tables or passages of the source. Starred links: 1 amine or outer side, 2 acyl side, 3 side chain; linkers in the order of their positions; H or OH if unused. Positions of bridges follow the written chain, without caps; N, C: chain ends. Non-standard residues stand in square brackets, D forms with d. Residues, ends and D or L forms follow the SMILES beside them. *: point of attachment. Lys(5-FITC)NH2 = NC(=O)[C@H](CCCCNC(=S)Nc1ccc2c(c1)C(=O)OC21c2ccc(O)cc2Oc2cc(O)ccc21)N*; Trimesoyl = O=C(c1cc(C(=O)[*:2])cc(C(=O)[*:3])c1)[*:1]; Phe(4-Cl) = N[C@@H](Cc1ccc(Cl)cc1)C(=O)O; Phe(4-F) = N[C@@H](Cc1ccc(F)cc1)C(=O)O; 2Nal = N[C@@H](Cc1ccc2ccccc2c1)C(=O)O; Pip = O=C(O)[C@@H]1CCCCN1; Dap = NC[C@H](N)C(=O)O; Sar = CNCC(=O)O

Columns and labels:
[1] = system: SUV2 (vesicles that mimic the negatively charged endosomal membrane of mammalian cells); assay: Fluorescence polarization membrane binding, SUV2
Description: (§1) Also discussed herein are the CPP sequences in Table 16. All uptake/delivery efficiencies are in Table 17 are relative to that of cFΦR4 (290-1F, 100%). SUV1 are small unilamellar vesicles that mimic the neutral outer membrane of mammalian cells [45% phosphatidylcholine (PC), 20% phosphatidylethanolamine (PE), 20% sphingomyelin (SM), and 15% cholesterol (CHO)]. SUV2 are small unilamellar vesicles that mimic the negatively charged endosomal membrane of mammalian cells [50% PC, 20% PE, 10% phosphatidylinositol (PI), and 20% bis(monoacylglycerol)phosphate].
(§2) Measurements were carried out fluorescence polarization using FITC-labeled cyclic peptides against increasing concentrations of vesicles. Experiments were performed at pH 7.4 and 5.5 (pH inside late endosomes).

[2] = system: SUV1 (vesicles that mimic the neutral outer membrane of mammalian cells); assay: Fluorescence polarization membrane binding, SUV1; conditions: pH 7.4; read-out: Membrane Binding KD (mM) SUV1 pH 7.4
Description: as §1, §2

[3] = system: cell type (e.g., HeLa cells); assay: Cellular uptake efficiency of cyclic CPPs; type: cell-based; conditions: relative to cFΦR4 (290-1F, 100%)
Method: In particular embodiments, uptake efficiency is determined by comparing (i) the amount of a cyclic cell-penetrating peptide of the invention internalized by a cell type (e.g., HeLa cells) to (ii) the amount of c(FΦRRRRQ) (290-1F) internalized by the same cell type. To measure cellular uptake efficiency, the cell type may be incubated in the presence of a cell-penetrating peptide of the invention for a specified period of time (e.g., 30 minutes, 1 hour, 2 hours, etc.) after which the amount of the cell-penetrating peptide internalized by the cell is quantified. Separately, the same concentration of c(FΦRRRRQ) (290-1F) is incubated in the presence of the cell type over the same period of time, and the amount of the second peptide internalized by the cell is quantified. Quantification can be achieved by fluorescently labeling the cell-penetrating peptide (e.g., with a FTIC dye) and measuring the fluorescence intensity using techniques well-known in the art.
as §1

Pin1 = target: T1, Pin1 (Homo sapiens, UniProt Q13526, S16A/Y23A); assay: Pin1 binding by FA (FITC-labeled peptides); conditions: for Kd: FITC-labeled peptide, FA, read-out: KD
T1 construct: The full-length human S16A/Y23A mutant Pin1 was expressed and purified from E. coli; made in house
Method: FA experiments were carried out by incubating 100 nM FITC-labeled peptide with varying concentrations of protein in 20 mM HEPES (pH 7.4), 150 mM NaCl, 2 mM magnesium acetate, and 0.1% bovine serum albumin (BSA) for 2 h at room temperature. The FA values were measured on a Molecular Devices Spectramax M5 plate reader, with excitation and emission wavelengths at 485 and 525 nm, respectively. Equilibrium dissociation constants (KD) were determined by plotting the FA values as a function of protein concentration and fitting the curve to the following equation:

[4] = pH 5.5, read-out: Membrane Binding KD (mM) SUV2 pH 5.5
[5] = pH 7.4, read-out: Membrane Binding KD (mM) SUV2 pH 7.4

With `N=C(N)NCCC[C@@H]1NC(=O)[C@H](CCC(=O)N[C@@H](CCCCNC(=S)Nc2ccc3c(c2)C(=O)OC32c3ccc(O)cc3Oc3cc(O)ccc32)C(N)=O)NC(=O)[C@H](CCCNC(=N)N)NC(=O)[C@H](Cc2ccc3ccccc3c2)NC(=O)[C@H](CCCNC(=N)N)NC(=O)[C@H](Cc2ccccc2)NC(=O)[C@H](CCCNC(=N)N)NC1=O` [Peptide 290-3F, c(RRFRΦRQ)] (cyclo(RRFR[2Nal]RE(Lys(5-FITC)NH2))) the Kd [1, 4] was 0.26 mM, the Kd [1, 5] was 0.4 mM and the Kd [2] was 0.22 mM. The “Uptake Efficiency (%)” value [3] was 163%.

`N=C(N)NCCC[C@@H]1NC(=O)[C@H](CCC(=O)N[C@@H](CCCCNC(=S)Nc2ccc3c(c2)C(=O)OC32c3ccc(O)cc3Oc3cc(O)ccc32)C(N)=O)NC(=O)[C@H](CCCNC(=N)N)NC(=O)[C@H](Cc2ccc3ccccc3c2)NC(=O)[C@H](CCCNC(=N)N)NC(=O)[C@H](Cc2ccccc2)NC(=O)[C@H](CCCNC(=N)N)NC(=O)[C@H](Cc2ccccc2)NC1=O` [Peptide 290-8F] (cyclo(RFRFR[2Nal]RE(Lys(5-FITC)NH2))) showed a Kd [1, 4] of 0.082 mM, a Kd [1, 5] of 0.39 mM and a Kd [2] of 0.4 mM. The “Uptake Efficiency (%)” value [3] was 98%.

Molecule `N=C(N)NCCC[C@@H]1NC(=O)[C@H](Cc2ccc3ccccc3c2)NC(=O)[C@@H](Cc2ccccc2)NC(=O)[C@H](Cc2ccccc2)NC(=O)[C@H](CCC(=O)N[C@@H](CCCCNC(=S)Nc2ccc3c(c2)C(=O)OC32c3ccc(O)cc3Oc3cc(O)ccc32)C(N)=O)NC(=O)[C@@H](CCCNC(=N)N)NC(=O)[C@H](CCCNC(=N)N)NC(=O)[C@@H](CCCNC(=N)N)NC1=O` [Peptide 290-12F, c(FfΦRrRrQ)] (cyclo(F[dF][2Nal]R[dR]R[dR]E(Lys(5-FITC)NH2))) has a Kd [1, 4] of 0.004 mM, a Kd [1, 5] of 0.026 mM and a Kd [2] of 0.8 mM. The “Uptake Efficiency (%)” value [3] was 681%.

Work on `N=C(N)NCCC[C@@H]1NC(=O)[C@H](CCC(=O)N[C@@H](CCCCNC(=S)Nc2ccc3c(c2)C(=O)OC32c3ccc(O)cc3Oc3cc(O)ccc32)C(N)=O)NC(=O)[C@H](CCCNC(=N)N)NC(=O)[C@H](CCCNC(=N)N)NC(=O)[C@H](Cc2ccccc2)NC(=O)[C@H](Cc2ccc3ccccc3c2)NC(=O)[C@H](CCCNC(=N)N)NC1=O` [Peptide 290-2F, c(RRΦFRRQ)] (cyclo(RR[2Nal]FRRE(Lys(5-FITC)NH2))) yielded a Kd [1, 4] of 0.025 mM, a Kd [1, 5] of 0.69 mM and a Kd [2] of 1.95 mM. The “Uptake Efficiency (%)” value [3] was 47%.

With `N=C(N)NCCC[C@@H]1NC(=O)[C@H](Cc2ccccc2)NC(=O)[C@H](CCCNC(=N)N)NC(=O)[C@@H](CCCNC(=N)N)NC(=O)[C@H](CCC(=O)N[C@@H](CCCCNC(=S)Nc2ccc3c(c2)C(=O)OC32c3ccc(O)cc3Oc3cc(O)ccc32)C(N)=O)NC(=O)[C@H](CCCNC(=N)N)NC(=O)[C@H](Cc2ccc3ccccc3c2)NC1=O` [Peptide 290-10F, c(rRFRΦRQ)] (cyclo([dR]RFR[2Nal]RE(Lys(5-FITC)NH2))) the Kd [1, 4] was 0.17 mM, the Kd [1, 5] was 0.87 mM and the Kd [2] was 1.2 mM. The “Uptake Efficiency (%)” value [3] was 52%.

With `N=C(N)NCCC[C@@H]1NC(=O)[C@H](CCCNC(=N)N)NC(=O)[C@H](CCCNC(=N)N)NC(=O)[C@H](Cc2ccc3ccccc3c2)NC(=O)[C@H](Cc2ccccc2)NC(=O)[C@H](Cc2ccccc2)NC(=O)[C@H](CCC(=O)N[C@@H](CCCCNC(=S)Nc2ccc3c(c2)C(=O)OC32c3ccc(O)cc3Oc3cc(O)ccc32)C(N)=O)NC(=O)[C@H](CCCNC(=N)N)NC1=O` [Peptide 290-7F] (cyclo(FF[2Nal]RRRRE(Lys(5-FITC)NH2))) the Kd [1, 4] was 0.007 mM, the Kd [1, 5] was 0.11 mM and the Kd [2] was 1.65 mM. For the same molecule, the “Uptake Efficiency (%)” value [3] was 134%.

For `CN1CC(=O)N[C@H](CC(=O)O)C(=O)N2CCCC[C@H]2C(=O)N[C@@H](Cc2ccc3ccccc3c2)C(=O)N[C@@H](CCCNC(=N)N)C(=O)N[C@@H](CCCNC(=N)N)C(=O)N[C@H](Cc2ccccc2)C(=O)N[C@H]2CNC(=O)c3cc(cc(c3)C(=O)N3CCC[C@H]3C1=O)C(=O)NC[C@@H](C(=O)N[C@@H](CCCCN)C(N)=O)NC(=O)[C@H](CCCNC(=N)N)NC(=O)[C@H](CCCNC(=N)N)NC(=O)[C@H](CCCNC(=N)N)NC(=O)[C@H](CCCNC(=N)N)NC(=O)[C@H](Cc1ccc3ccccc3c1)NC(=O)[C@H](Cc1ccccc1)NC2=O` [Peptide 22, bicyclo[Tm-(Pro-Sar-D-Asp-Pip-Nal-Arg-Arg-D-Phe)-Dap-(Phe-Nal-Arg-Arg-Arg-Arg-Dap)]-Lys] (P[Sar][dD][Pip][2Nal]RR[dF][Dap]F[2Nal]RRRR[Dap]K-NH2; linker N-9-16 via Trimesoyl; C-terminus assumed), the Kd (Pin1) was 0.48 µM and the “Improvement of Pin1 binding by D-Phe for D-Ala vs parent peptide” value (Pin1; peptide 22 vs 3, peptide 27 vs 4) was roughly 2 fold.

“bicyclo[Tm-(D-4-Phe-Fpa-D-homoGlu-Pip-Nal-Arg-Ala-D-Phe)-Dap-(Phe-Nal-Arg-Arg-Arg-Arg-Dap)]-Lys [Peptide 41]” showed a Kd (Pin1) of 0.87 ± 0.08 µM.

For `CC(C)[C@H]1NC(=O)c2cc3cc(c2)C(=O)NC[C@H](NC(=O)[C@@H](C)NC(=O)[C@H](C)NC(=O)[C@H](CCCNC(=N)N)NC(=O)[C@H](Cc2ccc4ccccc4c2)NC(=O)[C@@H]2CCCCN2C(=O)[C@@H]([C@H](C)O)NC(=O)[C@H](Cc2ccc(F)cc2)NC1=O)C(=O)N[C@@H](Cc1ccccc1)C(=O)N[C@@H](Cc1ccc2ccccc2c1)C(=O)N[C@@H](CCCNC(=N)N)C(=O)N[C@@H](CCCNC(=N)N)C(=O)N[C@@H](CCCNC(=N)N)C(=O)N[C@@H](CCCNC(=N)N)C(=O)N[C@H](C(=O)N[C@@H](CCCCN)C(N)=O)CNC3=O` [Peptide 34, bicyclo[Tm-(D-Val-4-Fpa-D-Thr-Pip-Nal-Arg-Ala-D-Ala)-Dap-(Phe-Nal-Arg-Arg-Arg-Arg-Dap)]-Lys] ([dV][Phe(4-F)][dT][Pip][2Nal]RA[dA][Dap]F[2Nal]RRRR[Dap]K-NH2; linker N-9-16 via Trimesoyl; C-terminus assumed), the Kd (Pin1) was 1.07 ± 0.16 µM.

`C[C@@H]1NC(=O)[C@H](CCCNC(=N)N)NC(=O)[C@H](Cc2ccc3ccccc3c2)NC(=O)[C@@H]2CCCCN2C(=O)[C@@H]([C@H](C)O)NC(=O)[C@H](Cc2ccc(Cl)cc2)NC(=O)[C@@H](Cc2ccccc2)NC(=O)c2cc3cc(c2)C(=O)NC[C@H](NC(=O)[C@@H](Cc2ccccc2)NC1=O)C(=O)N[C@@H](Cc1ccccc1)C(=O)N[C@@H](Cc1ccc2ccccc2c1)C(=O)N[C@@H](CCCNC(=N)N)C(=O)N[C@@H](CCCNC(=N)N)C(=O)N[C@@H](CCCNC(=N)N)C(=O)N[C@@H](CCCNC(=N)N)C(=O)N[C@H](C(=O)N[C@@H](CCCCN)C(N)=O)CNC3=O` [Peptide 30, bicyclo[Tm-(D-Phe-4-ClPhe-D-Thr-Pip-Nal-Arg-Ala-D-Phe)-Dap-(Phe-Nal-Arg-Arg-Arg-Arg-Dap)]-Lys] ([dF][Phe(4-Cl)][dT][Pip][2Nal]RA[dF][Dap]F[2Nal]RRRR[Dap]K-NH2; linker N-9-16 via Trimesoyl; C-terminus assumed) showed a Kd (Pin1) of 0.78 ± 0.05 µM.

In the case of `CN1CC(=O)N[C@H](CC(=O)O)C(=O)N2CCCC[C@H]2C(=O)N[C@@H](Cc2ccc3ccccc3c2)C(=O)N[C@@H](CCCNC(=N)N)C(=O)N[C@@H](CCCNC(=N)N)C(=O)N[C@H](CCCNC(=N)N)C(=O)N[C@H]2CNC(=O)c3cc(cc(c3)C(=O)N3CCC[C@H]3C1=O)C(=O)NC[C@@H](C(=O)N[C@@H](CCCCN)C(N)=O)NC(=O)[C@H](CCCNC(=N)N)NC(=O)[C@H](CCCNC(=N)N)NC(=O)[C@H](CCCNC(=N)N)NC(=O)[C@H](CCCNC(=N)N)NC(=O)[C@H](Cc1ccc3ccccc3c1)NC(=O)[C@H](Cc1ccccc1)NC2=O` [Peptide 24, bicyclo[Tm-(Pro-Sar-D-Asp-Pip-Nal-Arg-Arg-D-Arg)-Dap-(Phe-Nal-Arg-Arg-Arg-Arg-Dap)]-Lys] (P[Sar][dD][Pip][2Nal]RR[dR][Dap]F[2Nal]RRRR[Dap]K-NH2; linker N-9-16 via Trimesoyl; C-terminus assumed), the Kd (Pin1) is reported as 1.31 ± 0.1 µM.

`C[C@H](O)[C@H]1NC(=O)[C@H](Cc2ccc(F)cc2)NC(=O)[C@@H](Cc2ccccc2)NC(=O)c2cc3cc(c2)C(=O)NC[C@H](NC(=O)[C@H](CCCNC(=N)N)NC(=O)[C@H](Cc2ccc4ccccc4c2)NC(=O)[C@@H]2CCCCN2C1=O)C(=O)N[C@@H](Cc1ccccc1)C(=O)N[C@@H](Cc1ccc2ccccc2c1)C(=O)N[C@@H](CCCNC(=N)N)C(=O)N[C@@H](CCCNC(=N)N)C(=O)N[C@@H](CCCNC(=N)N)C(=O)N[C@@H](CCCNC(=N)N)C(=O)N[C@H](C(=O)N[C@@H](CCCCN)C(N)=O)CNC3=O` [Peptide 12, bicyclo[Tm-(D-Phe-Fpa-D-Thr-Pip-Nal-Arg)-Dap-(Phe-Nal-Arg-Arg-Arg-Arg-Dap)]-Lys] ([dF][Phe(4-F)][dT][Pip][2Nal]R[Dap]F[2Nal]RRRR[Dap]K-NH2; linker N-7-14 via Trimesoyl; C-terminus assumed) gave a Kd (Pin1) of 2.36 ± 0.48 µM.
